According to patent US7625948B2, “Ester compound and medicinal use thereof” (Japan Tobacco Inc., priority 2002, dated 2009):
Where two headings read alike, the source gives them in different places.

Test system: HepG2 cells
Assay: Test Example 2: inhibition of apolipoprotein B secretion from HepG2 cells, ELISA (also used for metabolites in Test Example 8)
Assay type: cell-based
Conditions: Homo sapiens
Protocol: Inhibition of Apolipoprotein B Secretion from HepG2 Cells
HepG2 cells were suspended in Dulbecco's Modified Eagle's Medium (DMEM) (containing 10% fetal bovine serum, 100 units/mL penicillin and 100 μg/mL streptomycin), and placed on a 96-well plate (4×10^4 cells/well), then incubated for 24 hours. After removal of the medium, DMEM was replaced by a medium containing a sample dissolved in DMSO or a medium containing DMSO (concentration of DMSO: 0.5%) and incubation was further performed for 24 hours, after which the supernatant was recovered, and concentration of apo B in the supernatant was assayed by Enzyme-Linked Immunosorbent Assay (ELISA)
ELISA was carried out as follows. Anti-human apo B monoclonal antibody (0.5 μg/well) diluted with a solution of sodium carbonate in sodium bicarbonate buffer (50 mL, pH 9.6) was placed in a 96-well plate for ELISA, and allowed to stand at room temperature for 15 hours. After washing the plate, a blocking solution (250 μL/well) was placed in the well, and allowed to stand at room temperature for 1.5 hours. After washing the plate, a standard and a sample (100 μL/well) were placed in the well and allowed to stand at room temperature for one hour. The standard was prepared by adjusting the concentration of the purified human apo B with the DMEM to 0 to 1000 ng/mL. After washing the plate, an anti-human apo B polyclonal antibody labeled with a horse radish peroxidase which was diluted in 1:1000 with DEME (100 μL/well), and allowed to stand at room temperature for one hour. After washing the plate, 2,2-azinobis(3-ethylbenzothiazoline-6-sulfonic acid) solution (100 μL/well) was placed in the well, and allowed to stand at room temperature for one hour. The reaction was stopped by addition of 2% oxalic acid (100 μL/well), and absorbency at 405 nm was measured. Concentration of apo B in the sample was calculated on the basis of a standard curve of the standard. Inhibition rate (%) was calculated from the assayed values in accordance with the following equation.
Inhibition rate (%)=100×(1 minus (concentration of apo B in sample group/concentration of apo B in DMSO group).
Based on the above equation, 50% inhibition concentration (IC50) was determined.
Inhibitory Activity on MTP and apo B Secretion Inhibition by Metabolites
In a similar manner to Test Examples 1 and 2, the activity of metabolites was assayed.

[1] = 24 hours, apo B in supernatant by ELISA, read-out: Test Example 2 Inhibition of apo B secretion IC50

SMILES | IC50 (main metabolites of the compounds (Test Example 8), read-out: Inhibition of apo B secretion IC50) [nM] | IC50 [1] [nM]
O=C(O)Cc1ccc(NC(=O)c2ccccc2-c2ccc(C(F)(F)F)cc2)c(C(=O)N2CCCC2)c1 | > 10000 | 
COCCNC(=O)C(COC(=O)Cc1ccc(NC(=O)c2ccccc2-c2ccc(C(F)(F)F)cc2)cc1)(C(=O)NCCOC)c1ccccc1 [Example 1-73] |  | 39
CCOC(=O)C(COC(=O)Cc1ccc(NC(=O)c2sc(C)nc2-c2ccc(C(F)(F)F)cc2)cc1)(C(=O)OCC)c1ccccc1 [Example 1-74] |  | 680
CCNC(=O)C(COC(=O)Cc1ccc(NC(=O)c2sc(C)nc2-c2ccc(C(F)(F)F)cc2)cc1)(C(=O)NCC)c1ccccc1 [Example 1-75] |  | 97
CCNC(=O)C(COC(=O)Cc1ccc(NC(=O)c2cccnc2-c2ccc(C(F)(F)F)cc2)cc1)(C(=O)NCC)c1ccccc1 [Example 1-76] |  | 120
CCNC(=O)C(COC(=O)Cc1ccc(NC(=O)c2cccnc2-c2ccc(C(F)(F)F)cc2)c(C)c1)(C(=O)NCC)c1ccccc1 [Example 1-77] |  | 360
CCOC(=O)C(COC(=O)Cc1ccc(NC(=O)c2ccccc2-c2ccc(C(F)(F)F)cc2)c(CC)c1)(C(=O)OCC)c1ccccc1 [Example 1-78] |  | 11
CCOC(=O)C(COC(=O)Cc1ccc(NC(=O)c2ccccc2-c2ccc(C(F)(F)F)cc2)c(C(C)C)c1)(C(=O)OCC)c1ccccc1 [Example 1-80] |  | 8.2
CCNC(=O)C(COC(=O)Cc1ccc(NC(=O)c2ccccc2-c2ccc(C(F)(F)F)cc2)c(C(=O)N(C)C(C)C)c1)(C(=O)NCC)c1ccccc1 [Example 2-12] |  | 7
CCCN(C)C(=O)c1cc(CC(=O)OCC(C(=O)NCC)(C(=O)NCC)c2ccccc2)ccc1NC(=O)c1ccccc1-c1ccc(C(F)(F)F)cc1 [Example 2-19] |  | 26
CCC(=O)N[C@@H](COC(=O)Cc1ccc(NC(=O)c2ccccc2-c2ccc(C(F)(F)F)cc2)c(C(=O)N(C)C)c1)c1ccccc1 [Example 2-24] |  | 28
CN(C)C(=O)c1cc(CC(=O)OC[C@H](c2ccccc2)N2C(=O)CCC2=O)ccc1NC(=O)c1ccccc1-c1ccc(C(F)(F)F)cc1 [Example 2-26] |  | 8.2
CC(C)N[C@@H](COC(=O)Cc1ccc(NC(=O)c2ccccc2-c2ccc(C(F)(F)F)cc2)c(C(=O)N(C)C)c1)c1ccccc1 [Example 2-29] |  | 91
CCNC(=O)C(COC(=O)Cc1ccc(NC(=O)c2ccccc2C(F)(F)F)c(C(=O)N(C)C)c1)(C(=O)NCC)c1ccccc1 [Example 2-30] |  | 27
CCOC(=O)C(COC(=O)Cc1ccc(NC(=O)c2ccccc2C(F)(F)F)c(C(=O)N(C)C)c1)(C(=O)OCC)c1ccccc1 [Example 2-31] |  | 43
CCOC(=O)C(COC(=O)Cc1ccc(NC(=O)c2ccccc2-c2ccc(F)cc2)c(C(=O)N(C)C)c1)(C(=O)OCC)c1ccccc1 [Example 2-33] |  | 13
CC(=O)N[C@H](COC(=O)Cc1ccc(NC(=O)c2ccccc2-c2ccc(C(F)(F)F)cc2)c(C(=O)N(C)C)c1)c1ccccc1 [Example 2-35] |  | 38
CCCC(=O)N[C@H](COC(=O)Cc1ccc(NC(=O)c2ccccc2-c2ccc(C(F)(F)F)cc2)c(C(=O)N(C)C)c1)c1ccccc1 [Example 2-36] |  | 7.4
CCOC(=O)C(COC(=O)Cc1ccc(NC(=O)c2ccccc2-c2ccc(C(C)=O)cc2)c(C(=O)N(C)C)c1)(C(=O)OCC)c1ccccc1 [Example 2-43] |  | 9
CCNC(=O)C(COC(=O)Cc1ccc(NC(=O)c2ccccc2Oc2ccccc2)c(C(=O)N(C)C)c1)(C(=O)NCC)c1ccccc1 [Example 2-44] |  | 33
CCOC(=O)C(COC(=O)Cc1ccc(NC(=O)c2ccccc2Oc2ccccc2)c(C(=O)N(C)C)c1)(C(=O)OCC)c1ccccc1 [Example 2-45] |  | 39
CN(C)C(=O)c1cc(CC(=O)OC[C@@H](NS(C)(=O)=O)c2ccccc2)ccc1NC(=O)c1ccccc1-c1ccc(C(F)(F)F)cc1 [Example 2-49] |  | 49
CCOC(=O)C(COC(=O)Cc1ccc(NC(=O)c2ccccc2-c2ccc(C(F)(F)F)cc2)c(C(=O)N(C)C)c1)c1ccccc1 (stereo not drawn) [Example 2-50] |  | 21
CCC(=O)N(C)[C@H](COC(=O)Cc1ccc(NC(=O)c2ccccc2-c2ccc(C(F)(F)F)cc2)c(C(=O)N(C)C)c1)c1ccccc1 [Example 2-51] |  | 47
CCOC(=O)C(COC(=O)Cc1ccc(NC(=O)c2ccc(Cl)cc2-c2ccc(C(F)(F)F)cc2)c(C(=O)N(C)C)c1)(C(=O)OCC)c1ccccc1 [Example 2-54] |  | 8.5

Further molecules by falling IC50 [1], results first:

IC50 (main metabolites of the compounds (Test Example 8), read-out: Inhibition of apo B secretion IC50) [nM] | IC50 [1] [nM] | SMILES
 | 4.6 | CCOC(=O)C(COC(=O)Cc1ccc(NC(=O)c2ccc(OC)cc2-c2ccc(C(F)(F)F)cc2)c(C(=O)N(C)C)c1)(C(=O)OCC)c1ccccc1 [Example 2-53]
 | 4.4 | CCOC(=O)C(COC(=O)Cc1ccc(NC(=O)c2ccccc2-c2ccc(C(F)(F)F)cc2)c(Cl)c1)(C(=O)OCC)c1ccccc1 [Example 1-84]
 | 4.2 | CCOC(=O)C(COC(=O)Cc1ccc(NC(=O)c2cccc(C)c2-c2ccc(C(F)(F)F)cc2)c(C(=O)N(C)C)c1)(C(=O)OCC)c1ccccc1 [Example 2-55]
 | 3.2 | CCOC(=O)C(COC(=O)Cc1ccc(NC(=O)c2ccccc2-c2ccc(C(F)(F)F)cc2)c(Br)c1)(C(=O)OCC)c1ccccc1 [Example 1-85]
 | 2.9 | CCOC(=O)C(COC(=O)Cc1ccc(NC(=O)c2ccccc2-c2ccc(C#N)cc2)c(C(=O)N(C)C)c1)(C(=O)OCC)c1ccccc1 [Example 2-46]
 | 2.7 | CCNC(=O)C(COC(=O)Cc1ccc(NC(=O)c2ccccc2-c2ccc(C(F)(F)F)cc2)c(C(=O)N2CCCCC2)c1)(C(=O)NCC)c1ccccc1 [Example 2-16]
 | 2 | CCOC(=O)C(COC(=O)Cc1ccc(NC(=O)c2ccccc2-c2ccc(Br)cc2)c(C(=O)N(C)C)c1)(C(=O)OCC)c1ccccc1 [Example 2-34]
 | 1.9 | CCOC(=O)C(COC(=O)Cc1cc(C(=O)N(C)C)c(NC(=O)c2ccccc2-c2ccc(C(F)(F)F)cc2)cc1F)(C(=O)OCC)c1ccccc1 [Example 2-58]
 | 1.8 | CCOC(=O)C(COC(=O)Cc1ccc(NC(=O)c2ccccc2-c2ccc(Cl)cc2)c(C(=O)N(C)C)c1)(C(=O)OCC)c1ccccc1 [Example 2-42]
 | 1.7 | CCOC(=O)C(CCOC(=O)Cc1ccc(NC(=O)c2ccccc2-c2ccc(C(F)(F)F)cc2)c(C(=O)N(C)C)c1)(C(=O)OCC)c1ccccc1 [Example 2-32]
 | 1.4 | CCOC(=O)C(COC(=O)Cc1ccc(NC(=O)c2ccccc2-c2ccc(C(F)(F)F)cc2)c(C(=O)N(CC)CC)c1)(C(=O)OCC)c1ccccc1 [Example 2-10]
 | 1.3 | CCOC(=O)C(COC(=O)Cc1cc(Cl)c(NC(=O)c2ccccc2-c2ccc(C(F)(F)F)cc2)c(C(=O)N(C)C)c1)(C(=O)OCC)c1ccccc1 [Example 2-60]
 | 1.2 | CCOC(=O)C(COC(=O)Cc1ccc(NC(=O)c2ccccc2-c2ccc(C(F)(F)F)cc2)c(C(=O)N(C)C)c1)(C(=O)OCC)C1CCCCC1 [Example 2-41]
 | 1.2 | CCOC(=O)C(COC(=O)Cc1ccc(NC(=O)c2cc(C)ccc2-c2ccc(C(F)(F)F)cc2)c(C(=O)N(C)C)c1)(C(=O)OCC)c1ccccc1 [Example 2-47]
 | 0.99 | CCOC(=O)C(COC(=O)Cc1ccc(NC(=O)c2ccccc2-c2ccc(C(F)(F)F)cc2)c(C(=O)N(C)C)c1)(C(=O)OCC)C1CCCC1 [Example 2-40]
 | 0.99 | CCOC(=O)C(COC(=O)Cc1cc(Br)c(NC(=O)c2ccccc2-c2ccc(C(F)(F)F)cc2)c(C(=O)N(C)C)c1)(C(=O)OCC)c1ccccn1 [Example 2-59]
 | 0.93 | CN(C)C(=O)c1cc(CC(=O)OCC(C(=O)OCC(F)(F)F)(C(=O)OCC(F)(F)F)c2ccccc2)ccc1NC(=O)c1ccccc1-c1ccc(C(F)(F)F)cc1 [Example 2-56]
 | 0.64 | CCCN(C)C(=O)c1cc(CC(=O)OCCC(C(=O)NCC)(C(=O)NCC)c2ccccc2)ccc1NC(=O)c1ccccc1-c1ccc(C(F)(F)F)cc1 [Example 2-20]
 | 0.59 | CCNC(=O)C(COC(=O)Cc1ccc(NC(=O)c2ccccc2-c2ccc(C(F)(F)F)cc2)c(C(C)C)c1)(C(=O)NCC)c1ccccc1 [Example 1-79]
 | 0.56 | CCOC(=O)C(COC(=O)Cc1ccc(NC(=O)c2ccccc2-c2ccc(C(F)(F)F)cc2F)c(C(=O)N(C)C)c1)(C(=O)OCC)c1ccccc1 [Example 2-57]
 | 0.53 | CCNC(=O)C(COC(=O)Cc1ccc(NC(=O)c2ccccc2-c2ccc(C(F)(F)F)cc2)c(CC(C)C)c1)(C(=O)NCC)c1ccccc1 [Example 1-82]
 | 0.49 | CCNC(=O)C(CCOC(=O)Cc1ccc(NC(=O)c2ccccc2-c2ccc(C(F)(F)F)cc2)c(CC)c1)(C(=O)NCC)c1ccccc1 [Example 1-81]
 | 0.23 | CCOC(=O)C(COC(=O)Cc1ccc(NC(=O)c2ccccc2-c2ccc(C(F)(F)F)cc2)c(CC(C)C)c1)(C(=O)OCC)c1ccccc1 [Example 1-83]
